# Experimental data from US5266599A, “Use of (+)-1-[(3,4,5-trimethoxy)-benzyloxymethyl]-1-phenyl-N,N-dimethyl-n-propy lamine to increase gastric discharge in a subject” (priority 1989, dated 1993).
# Entries after “also recorded” stand apart in the source; their conditions may differ. Where a name gives a salt, the structure may show the parent alone. Read-outs that look alike come from different tables or passages of the source.
# Legend:
# delta receptor = biological target: T1, delta receptor (Cavia porcellus, UniProt A0A286XTF2); assay: biochemical; conditions: CI50, inhibition of 50% of the binding of a specific radioactive ligand
# T1 construct: from tissue
# kappa receptor = biological target: T2, kappa receptor (Cavia porcellus, UniProt P41144); assay: biochemical; conditions: CI50, inhibition of 50% of the binding of a specific radioactive ligand
# T2 construct: from tissue
# mu receptor = assay: Binding affinity to opiate receptor mu (inhibition of binding of a specific radioactive ligand); conditions: for IC50: read-out: CI50, inhibition of 50% of the binding of a specific radioactive ligand, mu receptor
# [1] = test system: abdominal cramps caused by acetic acid; assay: Analgesic activity in vivo, abdominal cramps caused by intraperitoneal acetic acid (derived from Koster); parameters: species or system mice
# [2] = test system: opiate receptors of the gastric mucous membrane; assay: Effect of the products on the gastric evacuation of solids in dogs; assay type: in vivo; conditions: for Variation in % of gastric evacuation of solids: oral capsule, one hour after meal; for effect on gastric discharge of solids (in words): one hour after administration
# Description: The principle of the test consists in measuring the gastric content of the animals one hour after eating a meal comprising 400 g of solid matter with 21.7% dry matter composed of:
# and 20 g of sheeps liver containing radiolabelled cyanocobalamine. The meal is consumed within about 5 minutes by the animals. After one hour, the gastric content is collected by means of a small tube placed approximately 10 cm into the pyloris before the experiment.
# The collected sample is weighed and homogenized. Its radioactivity is measured and the amount of the gastric discharge expressed in percentage is calculated according to the formula: [formula] in which: […]
# In practice, each test is carried out on three dogs and consists in administering to them, 20 minutes before eating the meal described above, a capsule containing the test product at a dose of […] per kg animal weight or a capsule placebo which serves to determine the control phenomenon of the discharge on the animal. The 3 dogs receive each treatment twice in random order. […] The meal is presented and ingested 20 minutes after the capsule containing the test product has been administered. The evacuation values of the solid phases are measured as described before and compared using the test of Mann and Whitney (U test). The difference in comparison with the control values is considered significant when p is<or =0.05.
# The effect of the test products is objectivised by the percentage variation calculated according to the relation: [formula]
# [3] = Solubility, hygroscopicity and stability of the addition salt; conditions: D-(-) tartaric acid salt
# [4] = test system: opiate receptors of the kappa type in the gastric mucous membrane; conditions: dog, in vivo, cited from earlier work
# [5] = test system: opiate receptors mu, delta and kappa; assay type: binding
# [6] = Acute toxicity, oral, in male mice; assay type: in vivo; conditions: mouse, in vivo, po, fourteen days
# Description: (§1) This toxicity has been studied orally in male mice. The test products have been administered at the rate of 2 ml of their aqueous solution per 100 g of animal weight. The animals are then observed for 3 hours after administration, then daily for fourteen days, when they are sacrificed and then an autopsy is carried out.
# (§2) The LD50 (lethal doses which cause the death of 50% of the animals) have been calculated according to the method of Reed J. L. and Muench H. (Am. J. Hyg. 1939, 27, p. 493).
# mice = assay: Acute toxicity, oral, in male mice; assay type: in vivo
# Description: as §1, §2
# duodenum of the rat = assay: tissue or blood; assay type: cell-based; conditions: for IC50: Rattus norvegicus
# gastric discharge = conditions: in vivo; cited from earlier work
# [7] = mu receptor, racemates uncorrected
# [8] = in vitro, compared with the (+) enantiomer or other receptors
# T2 sequence (P41144 whole entry): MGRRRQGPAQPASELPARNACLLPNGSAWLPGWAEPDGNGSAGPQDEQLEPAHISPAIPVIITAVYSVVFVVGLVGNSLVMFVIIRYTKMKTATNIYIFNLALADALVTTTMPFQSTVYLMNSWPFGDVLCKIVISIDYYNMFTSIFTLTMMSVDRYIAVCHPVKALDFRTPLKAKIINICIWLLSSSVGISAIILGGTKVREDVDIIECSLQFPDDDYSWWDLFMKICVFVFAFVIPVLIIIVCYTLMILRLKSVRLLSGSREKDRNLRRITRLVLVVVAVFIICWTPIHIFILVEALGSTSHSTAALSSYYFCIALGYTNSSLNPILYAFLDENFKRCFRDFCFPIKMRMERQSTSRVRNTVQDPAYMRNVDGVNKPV
# T1 sequence (A0A286XTF2 1-366): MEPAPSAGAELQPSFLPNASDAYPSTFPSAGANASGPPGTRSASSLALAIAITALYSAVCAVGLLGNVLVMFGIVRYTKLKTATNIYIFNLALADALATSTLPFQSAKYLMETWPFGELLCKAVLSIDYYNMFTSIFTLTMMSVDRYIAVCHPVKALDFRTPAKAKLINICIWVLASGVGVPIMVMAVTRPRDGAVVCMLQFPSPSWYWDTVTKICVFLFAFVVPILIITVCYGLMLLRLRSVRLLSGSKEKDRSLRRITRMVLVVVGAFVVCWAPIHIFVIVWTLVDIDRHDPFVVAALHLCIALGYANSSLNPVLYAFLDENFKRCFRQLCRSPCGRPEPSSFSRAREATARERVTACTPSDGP
smiles,measurement,setting,value
"CCC(COCc1ccc(OC)c(OC)c1)(c1ccccc1)N(C)C (racemic) [Ex. 1 of U.S. Pat. No. 4,301,163, (+/-)1-[(3,4-dimethoxy)benzyloxymethyl]-1-phenyl-N,N-dimethyl-n-propylamine]",IC50,delta receptor,7.8 µM
same,IC50,kappa receptor,1110 nM
same,IC50,mu receptor; [7],1110 nM
"CCC(COCc1ccccc1)(c1ccccc1)N(C)C (racemic) [Ex. 3 of U.S. Pat. No. 4,301,163, (+/-)1-benzyloxymethyl-1-phenyl-N,N-dimethyl-n-propylamine]",% analgesia,"[1]; 50 mg/kg, orally, mice",27.6%
same,IC50,delta receptor,14.7 µM
same,IC50,kappa receptor,560 nM
same,mu receptor affinity (in words),mu receptor; [8],"just as, if not more active"
same,IC50,mu receptor; [7],190 nM
"CCC(COCc1cc(OC)c(OC)c(OC)c1)(NC)c1ccccc1 (racemic) [Ex. 12 of U.S. Pat. No. 4,301,163]",% analgesia,"[1]; 50 mg/kg, orally, mice",44.0%
same,"% analgesia, corrected for racemic compound (multiplied by two)","[1]; 50 mg/kg, orally, mice, racemate correction",88.0%
same,IC50,delta receptor,2.25 µM
same,IC50,kappa receptor,2280 nM
same,mu receptor affinity (in words),mu receptor; [8],"just as, if not more active"
same,IC50,mu receptor; [7],360 nM
"COc1ccc(C(C)(COCc2ccc(Cl)cc2)N(C)C)cc1 (racemic) [Ex. 13 of U.S. Pat. No. 4,301,163, (+/-) 1-(p-chlorobenzyloxymethyl)-1-(p-methoxyphenyl)N,N-dimethyl-n-ethylamine]",% analgesia,"[1]; 50 mg/kg, orally, mice",27.9%
same,IC50,delta receptor,4.39 µM
same,IC50,kappa receptor,900 nM
same,mu receptor affinity (in words),mu receptor; [8],"just as, if not more active"
same,IC50,mu receptor; [7],250 nM
"CCC(COC(=O)c1cc(OC)c(OC)c(OC)c1)(c1ccccc1)N(C)C (racemic) [Trimebutine, (+/-)-2-dimethylamino-2-phenyl-n-butyl 3,4,5-trimethoxybenzoate]",% analgesia,"[1]; mouse, in vivo",24.3%
same,"% analgesia, corrected for racemic compound (multiplied by two)","[1]; mouse, in vivo",48.6%
same,Variation in % of gastric evacuation of solids,[2]; 5 mg/kg,-4%
same,IC50,delta receptor,1.75 µM
same,IC50,kappa receptor,1460 nM
same,mu receptor affinity (in words),mu receptor,"just as, if not more active"
same,IC50,mu receptor,146 nM
"CCC(COCc1cc(OC)c(OC)c(OC)c1)(c1ccccc1)N(C)C (single isomer, unassigned) [D-(-) tartaric acid addition salt, (+) 1-[(3,4,5-trimethoxy)-benzyloxymethyl]-1-phenyl-N-N-dimethyl-n-propylamineD-(-)-tartrate]",hygroscopicity (in words),[3],without being hygroscopic
same,physico-chemical stability (in words),[3],physico-chemical stability necessary for its use
same,solubility in water (in words),[3],soluble in water
"CCC1C2Cc3ccc(O)cc3C1(CC)CCN2Cc1ccoc1 (single isomer, unassigned) [MR 2266]",inhibition of the gastric discharge effect of the product of the invention by the antagonist (in words),[2]; intravenous antagonist,inhibited
same,inhibition of the gastric discharge effect of kappa agonists (in words),[4],inhibited
"CCC(COCc1cc(OC)c(OC)c(OC)c1)(c1ccccc1)N(C)C (single isomer, unassigned; (+)) [(+) Enantiomer, (+) 1-[(3,4,5-trimethoxy)benzyloxymethyl]-1-phenyl-N,N-dimethyl-n-propylamine]",% analgesia,"[1]; mouse, in vivo",17.6%
same,times less analgesic than the compound of Example 12 of the U.S. Patent,"[1]; mouse, in vivo",~5 times
same,times less analgesic than the trimebutine,"[1]; mouse, in vivo",~3 times
same,analgesic effect (in words),"[1]; mouse, in vivo, po","virtually without any analgesic effect; also recorded: does not have ""in vivo"", as one would expect it, a central analgesic activity; also recorded: very little analgesic effect"
same,"Variation in % of gastric evacuation of solids, with MR 2266",[2]; 0.25 mg/kg oral + MR 2266 0.1 mg per kg intravenous,+14%
same,"Variation in % of gastric evacuation of solids, with naloxone",[2]; 0.25 mg/kg oral + naloxone 0.1 mg per kg intravenous,+5%
same,Variation in % of gastric evacuation of solids,[2]; 0.25 mg/kg,+110%
same,effect on gastric discharge of solids (in words),[2]; listed as compound of the invention,increased discharge of solids in dogs
same,effect on gastric discharge of solids (in words),[2]; listed as product of the invention,doubles the gastric evacuation of the solids; also recorded: clearly shows an activity which encourages gastric discharge of solids in dogs
same,"receptor binding affinity to mu, delta and kappa (in words)",[5],"shows a receptor binding affinity to the receptors mu, delta and kappa; also recorded: shows an ""in vitro"" affinity with the opiate receptors mu, delta and kappa; also recorded: showing an affinity to the three receptors studied, with a non-negligible intensity"
same,IC50,delta receptor,0.54 µM
same,LD50 at 336 h,[6],407 mg/kg
same,toxicity relative to the levorotatory antipode (in words),mice,about half as toxic
same,IC50,kappa receptor,232 nM
same,antispasmodic activity (in words),duodenum of the rat,activity slightly above that of papaverine; also recorded: possesses an antispasmodic activity
same,IC50,duodenum of the rat; read-out: molar concentration inhibiting 50% of the amplitude of spasms caused by barium chloride,17 µM
same,IC50,mu receptor; [7],196 nM
"CCC(COCc1cc(OC)c(OC)c(OC)c1)(c1ccccc1)N(C)C (single isomer, unassigned; (-)) [(-) Enantiomer, (-) 1-[(3,4,5-trimethoxy)benzyloxymethyl]-1-phenyl-N,N-dimethyl-n-propylamine]",Variation in % of gastric evacuation of solids,[2]; 0.25 mg/kg,+26%
same,effect on gastric discharge of solids (in words),[2]; listed as levorotatory enantiomer,four times less significant
same,IC50,delta receptor,12.3 µM
same,LD50,"mice; fourteen days, 20160 min",255 mg/kg
same,IC50,kappa receptor,2630 nM
same,IC50,mu receptor; [7],580 nM
CN1CC[C@]23c4c5ccc(O)c4O[C@H]2[C@@H](O)C=C[C@H]3[C@H]1C5 [Morphine],antispasmodic activity (in words),"duodenum of the rat; barium chloride, duodenum of the rat, in vitro",inactive; also recorded: inactive at a concentration of more than 5 times greater than that of the product of the invention
COc1ccc(Cc2nccc3cc(OC)c(OC)cc23)cc1OC [Papaverine],IC50,"duodenum of the rat; read-out: IC50, inhibition of 50% of the amplitude of contractions",27.4 µM
CN1c2ccccc2C(c2ccccc2F)=NCC1CNC(=O)c1ccsc1 (stereo not shown) [Tifluadom],gastric discharge after oral administration (in words),[4]; po,increased gastric discharge; also recorded: modify the gastric discharge by their local action
CCN(CC)CCNC(=O)c1cc(Cl)c(N)cc1OC [metoclopramide],gastric discharge (in words),gastric discharge,possesses this property
